Values quoted from earlier work as cited in US20230303474A1, “TOTAL SYNTHESES OF SPECIALIZED PRO-RESOLVING MEDIATORS (SPMS), STRUCTURAL ISOMERS AND STRUCTURAL ANALOGS” (UNIVERSITÉ LAVAL, priority 2020, published 2023).

System: skeletal muscle cells
Details: background statement citing ref. 19

Q: With CC/C=C\C[C@H](O)/C=C/C=C\C=C\[C@@H](O)C/C=C\C/C=C\CCC(=O)O [PDX, (4Z,7Z,10S,11E,13Z,15E,17S,19Z)-10,17-dihydroxydocosa-4,7,11,13,15,19-hexaenoic acid] as the molecule, how does the “release of the prototypic myokine interleukin-6 (IL-6)” value read?
A: The value was “induce the release”.

Q: Which “release of the prototypic myokine interleukin-6 (IL-6)” value does the source give for CC/C=C\C[C@H](O)\C=C/C=C/C=C/[C@H](O)C/C=C\C/C=C\CCC(=O)O [PD1, (4Z,7Z,10R,11E,13E,15Z,17S,19Z)-10,17-dihydroxydocosa-4,7,11,13,15,19-hexaenoic acid] here?
A: The value was “ineffective”.
